PubChem BioAssay (NCI)
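Cultured in 96-well plates, cells were exposed to test compound for 48 hours across five concentrations. GI50: concentration for 50% inhibition of growth. At the TGI there is no net growth.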

Tests used:
Test in all cases: growth of human tumour cells (NCI), 48 h; in the data active = GI50 below about 0.43 µM; inactive = the rest
SK-MEL-28 melanoma = test system: SK-MEL-28 melanoma
RXF 393 renal = test system: RXF 393 renal
SF-539 CNS = test system: SF-539 CNS
NCI-H522 lung = test system: NCI-H522 lung
SK-OV-3 ovarian = test system: SK-OV-3 ovarian
SF-268 CNS = test system: SF-268 CNS
UO-31 renal = test system: UO-31 renal
HOP-62 NSCLC = test system: HOP-62 NSCLC
MDA-MB-435 = test system: MDA-MB-435
MOLT-4 leukemia = test system: MOLT-4 leukemia
K-562 leukemia = test system: K-562 leukemia
NCI-H460 lung = test system: NCI-H460 lung
PC-3 prostate = test system: PC-3 prostate
OVCAR-4 ovarian = test system: OVCAR-4 ovarian
OVCAR-3 ovarian = test system: OVCAR-3 ovarian
SF-295 CNS = test system: SF-295 CNS
MCF7 breast = test system: MCF7 breast
SN12C renal = test system: SN12C renal
T-47D breast = test system: T-47D breast
OVCAR-8 ovarian = test system: OVCAR-8 ovarian
SW-620 colon = test system: SW-620 colon
NCI/ADR-RES ovarian = test system: NCI/ADR-RES ovarian
MDA-MB-231 breast = test system: MDA-MB-231 breast
TK-10 renal = test system: TK-10 renal
CAKI-1 renal = test system: CAKI-1 renal
UACC-62 melanoma = test system: UACC-62 melanoma
UACC-257 melanoma = test system: UACC-257 melanoma
A549 NSCLC = test system: A549 NSCLC
HCT-15 colon = test system: HCT-15 colon
786-0 renal = test system: 786-0 renal
MALME-3M melanoma = test system: MALME-3M melanoma
HT29 colon = test system: HT29 colon
NCI-H23 lung = test system: NCI-H23 lung
NCI-H226 lung = test system: NCI-H226 lung
HCT-116 colon = test system: HCT-116 colon
BT-549 breast = test system: BT-549 breast
SR leukemia = test system: SR leukemia
SK-MEL-5 melanoma = test system: SK-MEL-5 melanoma
A498 renal = test system: A498 renal
M14 melanoma = test system: M14 melanoma
HS 578T breast = test system: HS 578T breast
HCC-2998 colon = test system: HCC-2998 colon
U251 CNS = test system: U251 CNS
IGROV1 ovarian = test system: IGROV1 ovarian
RPMI-8226 leukemia = test system: RPMI-8226 leukemia
COLO 205 colon = test system: COLO 205 colon
KM12 colon = test system: KM12 colon
HOP-92 NSCLC = test system: HOP-92 NSCLC
LOX IMVI melanoma = test system: LOX IMVI melanoma
SK-MEL-2 melanoma = test system: SK-MEL-2 melanoma
SNB-19 CNS = test system: SNB-19 CNS
EKVX NSCLC = test system: EKVX NSCLC
ACHN renal = test system: ACHN renal
OVCAR-5 ovarian = test system: OVCAR-5 ovarian
DU-145 prostate = test system: DU-145 prostate

Cn1ccc2c1SSSSS2
36.4 µM: TGI (NCI-H23 lung)
68.9 µM: TGI (TK-10 renal)
71.2 µM: TGI (HS 578T breast)
45.7 µM: TGI (CAKI-1 renal)
inactive: GI50 (SK-MEL-28 melanoma) 21.1 µM | GI50 (RXF 393 renal) 28.9 µM | GI50 (SF-539 CNS) 25.6 µM | GI50 (NCI-H522 lung) 32.1 µM | GI50 (SK-OV-3 ovarian) 37.5 µM | GI50 (SF-268 CNS) 30.8 µM | GI50 (UO-31 renal) 36 µM | GI50 (HOP-62 NSCLC) > 100 µM | GI50 (MDA-MB-435) 23.7 µM | GI50 (MOLT-4 leukemia) 28.5 µM | GI50 (K-562 leukemia) 23.2 µM | GI50 (NCI-H460 lung) 47.6 µM | GI50 (PC-3 prostate) 25.3 µM | GI50 (OVCAR-4 ovarian) 21.8 µM | GI50 (OVCAR-3 ovarian) 16.5 µM | GI50 (SF-295 CNS) 41.3 µM | GI50 (MCF7 breast) 17.4 µM | GI50 (SN12C renal) 21 µM | GI50 (T-47D breast) 11.8 µM | GI50 (OVCAR-8 ovarian) 96.7 µM | GI50 (SW-620 colon) 29.1 µM | GI50 (NCI/ADR-RES ovarian) 22.8 µM | GI50 (MDA-MB-231 breast) 17.9 µM | GI50 (TK-10 renal) 27.1 µM | GI50 (CAKI-1 renal) 22.4 µM | GI50 (UACC-62 melanoma) 17.3 µM | GI50 (UACC-257 melanoma) 52.3 µM | GI50 (A549 NSCLC) 52.2 µM | GI50 (HCT-15 colon) 33.8 µM | GI50 (786-0 renal) 26.4 µM | GI50 (MALME-3M melanoma) 11.2 µM | GI50 (HT29 colon) 24.1 µM | GI50 (NCI-H23 lung) 18.9 µM | GI50 (NCI-H226 lung) 21.5 µM | GI50 (HCT-116 colon) 17.4 µM | GI50 (BT-549 breast) 61.4 µM | GI50 (SR leukemia) 4.6 µM | GI50 (SK-MEL-5 melanoma) 16.5 µM | GI50 (A498 renal) > 100 µM | GI50 (M14 melanoma) 18 µM | GI50 (HS 578T breast) 28.8 µM | GI50 (HCC-2998 colon) 17.1 µM | GI50 (U251 CNS) 40 µM | GI50 (IGROV1 ovarian) 35.9 µM | GI50 (RPMI-8226 leukemia) 20.9 µM | GI50 (COLO 205 colon) 15.1 µM | GI50 (KM12 colon) 17 µM | GI50 (HOP-92 NSCLC) 2.88 µM | GI50 (LOX IMVI melanoma) 24.8 µM | GI50 (SK-MEL-2 melanoma) 49.6 µM | GI50 (SNB-19 CNS) 36 µM | GI50 (EKVX NSCLC) 44.5 µM | GI50 (ACHN renal) 28.4 µM | GI50 (OVCAR-5 ovarian) 23 µM | GI50 (DU-145 prostate) 31.7 µM
53.8 µM: TGI (MDA-MB-435)
59.6 µM: TGI (HT29 colon)
69.8 µM: TGI (SF-539 CNS)
43.2 µM: TGI (MCF7 breast)
35.6 µM: TGI (M14 melanoma)
56 µM: TGI (OVCAR-4 ovarian)
58.7 µM: TGI (786-0 renal)
54.7 µM: TGI (NCI/ADR-RES ovarian)
47.1 µM: TGI (OVCAR-5 ovarian)
35.8 µM: TGI (KM12 colon)
51 µM: TGI (NCI-H226 lung)
35.9 µM: TGI (SK-MEL-5 melanoma)
66.4 µM: TGI (PC-3 prostate)
41.6 µM: TGI (MALME-3M melanoma) | TGI (COLO 205 colon)
71 µM: TGI (LOX IMVI melanoma)
36.1 µM: TGI (OVCAR-3 ovarian)
34.6 µM: TGI (UACC-62 melanoma)
31.1 µM: TGI (HCT-116 colon)
47.6 µM: TGI (T-47D breast)
84.7 µM: TGI (SW-620 colon)
52.9 µM: TGI (RPMI-8226 leukemia)
7.66 µM: TGI (HOP-92 NSCLC)
42 µM: TGI (SN12C renal)
45.8 µM: TGI (MDA-MB-231 breast)
> 100 µM: TGI (RXF 393 renal) | TGI (NCI-H522 lung) | TGI (SK-OV-3 ovarian) | TGI (SF-268 CNS) | TGI (UO-31 renal) | TGI (HOP-62 NSCLC) | TGI (MOLT-4 leukemia) | TGI (K-562 leukemia) | TGI (NCI-H460 lung) | TGI (SF-295 CNS) | TGI (OVCAR-8 ovarian) | TGI (UACC-257 melanoma) | TGI (A549 NSCLC) | TGI (HCT-15 colon) | TGI (BT-549 breast) | TGI (A498 renal) | TGI (U251 CNS) | TGI (IGROV1 ovarian) | TGI (SK-MEL-2 melanoma) | TGI (SNB-19 CNS) | TGI (EKVX NSCLC) | TGI (DU-145 prostate)
33 µM: TGI (HCC-2998 colon)
33.8 µM: TGI (SR leukemia)
47.5 µM: TGI (SK-MEL-28 melanoma)
73.3 µM: TGI (ACHN renal)
